Data reported in PubChem BioAssay AID328 (DTP/NCI, 2004).
Values joined by “and” are separate entries in the source; they are usually repeats but may differ in a detail not shown here. Equal values may be shown once. Inconclusive results and toxic doses are left out.

Test system: BDF1 mice, P388 leukemia ip, median survival T/C
Assay: NCI In Vivo Anticancer Drug Screen. Data for tumor model P388 Leukemia (intraperitoneal) in B6D2F1 (BDF1) mice
Conditions: endpoint: median survival time, higher = longer survival
In short: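 Read-out is survival of treated animals expressed relative to the vehicle group, as a T/C ratio.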

[1] = dose: 50.0 mg/kg/injection, schedule: Q01DX009 (ip), vehicle: saline
[2] = dose: 200.0 mg/kg/injection, schedule: Q04DX003 (ip), vehicle: Klucel (hydroxypropylcellulose) (HPC)
[3] = dose: 400.0 mg/kg/injection, schedule: Q04DX003 (ip), vehicle: Klucel (hydroxypropylcellulose) (HPC)
[4] = dose: 50.0 mg/kg/injection, schedule: Q01DX009 (ip), vehicle: saline with Tween-80
[5] = dose: 100.0 mg/kg/injection, schedule: Q01DX009 (ip), vehicle: saline with Tween-80
[6] = dose: 6.25 mg/kg/injection, schedule: Q01DX009 (ip), vehicle: Klucel (hydroxypropylcellulose) (HPC)
[7] = dose: 100.0 mg/kg/injection, schedule: Q04DX003 (ip), vehicle: saline with Tween-80
[8] = dose: 200.0 mg/kg/injection, schedule: Q04DX003 (ip), vehicle: saline with Tween-80
[9] = dose: 6.25 mg/kg/injection, schedule: Q01DX009 (ip), vehicle: saline with Tween-80
[10] = dose: 12.5 mg/kg/injection, schedule: Q01DX009 (ip), vehicle: saline with Tween-80
[11] = dose: 25.0 mg/kg/injection, schedule: Q01DX009 (ip), vehicle: saline with Tween-80
[12] = dose: 400.0 mg/kg/injection, schedule: Q04DX003 (ip), vehicle: saline with Tween-80
[13] = dose: 100.0 mg/kg/injection, schedule: Q01DX001 (ip), vehicle: saline with Tween-80
[14] = dose: 200.0 mg/kg/injection, schedule: Q01DX001 (ip), vehicle: saline with Tween-80

Structure (SMILES): c1ccc(-c2ncc3cnccn23)cc1
- T/C (dose: 3.12 mg/kg/injection, schedule: Q01DX009 (ip), vehicle: saline): 100 % of control
- T/C (dose: 6.25 mg/kg/injection, schedule: Q01DX009 (ip), vehicle: saline): 100 % of control
- T/C (dose: 12.5 mg/kg/injection, schedule: Q01DX009 (ip), vehicle: saline): 100 % of control
- T/C (dose: 12.5 mg/kg/injection, schedule: Q04DX003 (ip), vehicle: saline): 114 % of control
- T/C (dose: 25.0 mg/kg/injection, schedule: Q04DX003 (ip), vehicle: saline): 116 % of control
- T/C [1]: 88 % of control
- T/C (dose: 50.0 mg/kg/injection, schedule: Q04DX003 (ip), vehicle: saline): 105 % of control
- T/C (dose: 100.0 mg/kg/injection, schedule: Q04DX003 (ip), vehicle: saline): 107 % of control

Structure (SMILES): CCCC[N+](CCCC)(CCCC)CCCC.Cc1ccc([SH2+])c([SH2+])c1.Cc1ccc([SH2+])c([SH2+])c1.[Fe+3]
- T/C (dose: 45.0 mg/kg/injection, schedule: Q04DX003 (ip), vehicle: Klucel (hydroxypropylcellulose) (HPC)): 109 % of control
- T/C (dose: 65.0 mg/kg/injection, schedule: Q04DX003 (ip), vehicle: Klucel (hydroxypropylcellulose) (HPC)): 118 % of control
- T/C (dose: 100.0 mg/kg/injection, schedule: Q01DX001 (ip), vehicle: other): 112 % of control
- T/C (dose: 150.0 mg/kg/injection, schedule: Q04DX003 (ip), vehicle: Klucel (hydroxypropylcellulose) (HPC)): 118 % of control
- T/C (dose: 200.0 mg/kg/injection, schedule: Q01DX001 (ip), vehicle: other): 112 % of control
- T/C [2]: 90 % of control and 120 % of control
- T/C (dose: 400.0 mg/kg/injection, schedule: Q01DX001 (ip), vehicle: other): 108 % of control
- T/C [3]: 120 % of control

Structure (SMILES): O=[N+]([O-])c1cc([N+](=O)[O-])c2ccccc2c1NS(=O)(=O)c1ccc(Cl)c(Cl)c1Cl
- T/C [4]: 104 % of control
- T/C [5]: 120 % of control

Structure (SMILES): O=[N+]([O-])c1ccc(/C=C/c2cccc(/C=C/c3ccc([N+](=O)[O-])cc3)[n+]2[O-])cc1
- T/C (dose: 50.0 mg/kg/injection, schedule: Q01DX005 (ip), vehicle: saline with Tween-80): 96 % of control
- T/C (dose: 100.0 mg/kg/injection, schedule: Q01DX005 (ip), vehicle: saline with Tween-80): 94 % of control
- T/C (dose: 200.0 mg/kg/injection, schedule: Q01DX005 (ip), vehicle: saline with Tween-80): 93 % of control

Structure (SMILES): CC(Cc1ccccc1)NC1CC2CCC1C2 (stereo not given)
- T/C [6]: 104 % of control
- T/C (dose: 12.5 mg/kg/injection, schedule: Q01DX009 (ip), vehicle: Klucel (hydroxypropylcellulose) (HPC)): 104 % of control
- T/C (dose: 25.0 mg/kg/injection, schedule: Q01DX009 (ip), vehicle: Klucel (hydroxypropylcellulose) (HPC)): 113 % of control

Structure (SMILES): Cc1ccc2oc(=O)c(-c3cc4oc(=O)sc4cc3O)c(O)c2c1
- T/C (dose: 100.0 mg/kg/injection, schedule: Q01DX001 (ip), vehicle: Klucel (hydroxypropylcellulose) (HPC)): 100 % of control
- T/C (dose: 200.0 mg/kg/injection, schedule: Q01DX001 (ip), vehicle: Klucel (hydroxypropylcellulose) (HPC)): 100 % of control
- T/C (dose: 400.0 mg/kg/injection, schedule: Q01DX001 (ip), vehicle: Klucel (hydroxypropylcellulose) (HPC)): 106 % of control

Structure (SMILES): CC(=O)NS(=O)(=O)c1ccc(NC(=O)c2ccccc2C(=O)O)cc1
- T/C (dose: 50.0 mg/kg/injection, schedule: Q04DX003 (ip), vehicle: saline with Tween-80): 100 % of control
- T/C [7]: 100 % of control
- T/C [8]: 100 % of control

Structure (SMILES): CCOC(=O)C1Cc2c([nH]c(=O)[nH]c2=O)OC1c1cccc(Cl)c1 (stereo not given)
- T/C (dose: 3.12 mg/kg/injection, schedule: Q01DX009 (ip), vehicle: saline with Tween-80): 98 % of control
- T/C [9]: 96 % of control and 102 % of control
- T/C [10]: 93 % of control
- T/C [11]: 99 % of control and 107 % of control

Structure (SMILES): CCOC(=O)C(C(=O)OCC)C1C=CCC1 (stereo not given)
- T/C (dose: 100.0 mg/kg/injection, schedule: Q01DX009 (ip), vehicle: Klucel (hydroxypropylcellulose) (HPC)): 100 % of control
- T/C (dose: 100.0 mg/kg/injection, schedule: Q04DX003 (ip), vehicle: Klucel (hydroxypropylcellulose) (HPC)): 95 % of control
- T/C (dose: 200.0 mg/kg/injection, schedule: Q01DX009 (ip), vehicle: Klucel (hydroxypropylcellulose) (HPC)): 104 % of control
- T/C [2]: 116 % of control
- T/C (dose: 400.0 mg/kg/injection, schedule: Q01DX009 (ip), vehicle: Klucel (hydroxypropylcellulose) (HPC)): 109 % of control
- T/C [3]: 100 % of control

Structure (SMILES): CN(C)c1ccc(C(=O)c2ccc(N(C)C)cc2)cc1
- T/C [7]: 113 % of control
- T/C (dose: 118.0 mg/kg/injection, schedule: Q04DX003 (ip), vehicle: saline with Tween-80): 108 % of control
- T/C (dose: 177.0 mg/kg/injection, schedule: Q04DX003 (ip), vehicle: saline with Tween-80): 106 % of control and 110 % of control
- T/C [8]: 109 % of control
- T/C (dose: 264.0 mg/kg/injection, schedule: Q04DX003 (ip), vehicle: saline with Tween-80): 120 % of control
- T/C (dose: 265.0 mg/kg/injection, schedule: Q04DX003 (ip), vehicle: saline with Tween-80): 103 % of control
- T/C (dose: 266.0 mg/kg/injection, schedule: Q04DX003 (ip), vehicle: saline with Tween-80): 100 % of control
- T/C [12]: 105 % of control

Structure (SMILES): CN(C)CSCN(C)C
- T/C [11]: 100 % of control
- T/C [4]: 111 % of control
- T/C [5]: 102 % of control

Structure (SMILES): Cc1cc(NC(=O)c2ccc(Cl)cc2)ccc1Cl
- T/C [13]: 100 % of control
- T/C [14]: 86 % of control
- T/C (dose: 400.0 mg/kg/injection, schedule: Q01DX001 (ip), vehicle: saline with Tween-80): 95 % of control

Structure (SMILES): O=S(=O)(/N=C1C=C/C(=N\S(=O)(=O)c2ccccc2)C(Sc2ccccc2)=C\1)c1ccccc1
- T/C (dose: 50.0 mg/kg/injection, schedule: Q01DX001 (ip), vehicle: saline with Tween-80): 104 % of control
- T/C [13]: 90 % of control
- T/C [14]: 122 % of control

Structure (SMILES): Cc1c(O)ccc(=O)n1O
- T/C (dose: 20.0 mg/kg/injection, schedule: Q01DX009 (ip), vehicle: Klucel (hydroxypropylcellulose) (HPC)): 108 % of control
- T/C (dose: 20.0 mg/kg/injection, schedule: Q01DX009 (ip), vehicle: saline): 95 % of control
- T/C (dose: 40.0 mg/kg/injection, schedule: Q01DX009 (ip), vehicle: Klucel (hydroxypropylcellulose) (HPC)): 121 % of control
- T/C (dose: 40.0 mg/kg/injection, schedule: Q01DX009 (ip), vehicle: saline with Tween-80): 117 % of control
- T/C (dose: 40.0 mg/kg/injection, schedule: Q01DX009 (ip), vehicle: saline): 95 % of control
- T/C (dose: 80.0 mg/kg/injection, schedule: Q01DX009 (ip), vehicle: Klucel (hydroxypropylcellulose) (HPC)): 110 % of control
- T/C [5]: 116 % of control
- T/C [7]: 104 % of control
- T/C (dose: 160.0 mg/kg/injection, schedule: Q01DX009 (ip), vehicle: saline with Tween-80): 122 % of control
- T/C (dose: 160.0 mg/kg/injection, schedule: Q01DX009 (ip), vehicle: saline): 100 % of control
- T/C (dose: 200.0 mg/kg/injection, schedule: Q01DX009 (ip), vehicle: saline with Tween-80): 108 % of control
- T/C [8]: 100 % of control
- T/C [12]: 90 % of control

Structure (SMILES): CCCSc1ncnc2nc(C)[nH]c12
- T/C (dose: 0.39 mg/kg/injection, schedule: Q01DX009 (ip), vehicle: saline with Tween-80): 100 % of control
- T/C (dose: 0.78 mg/kg/injection, schedule: Q01DX009 (ip), vehicle: saline with Tween-80): 109 % of control
- T/C (dose: 1.56 mg/kg/injection, schedule: Q01DX009 (ip), vehicle: saline with Tween-80): 100 % of control and 122 % of control
- T/C (dose: 3.13 mg/kg/injection, schedule: Q01DX009 (ip), vehicle: saline with Tween-80): 95 % of control and 100 % of control
- T/C [9]: 103 % of control
- T/C [10]: 103 % of control

Structure (SMILES): O=c1cc[nH]c(=O)o1
- T/C (dose: 19.0 mg/kg/injection, schedule: Q01DX009 (ip), vehicle: water): 157 % of control
- T/C (dose: 28.0 mg/kg/injection, schedule: Q01DX009 (ip), vehicle: water): 169 % of control
- T/C (dose: 42.0 mg/kg/injection, schedule: Q01DX009 (ip), vehicle: water): 168 % of control
- T/C (dose: 63.0 mg/kg/injection, schedule: Q01DX009 (ip), vehicle: water): 94 % of control

Structure (SMILES): CN(C)c1ccc2c(c1)Cc1cc(N=C3C=CC(=O)O3)ccc1-2
- T/C (dose: 1.56 mg/kg/injection, schedule: Q01DX009 (ip), vehicle: Klucel (hydroxypropylcellulose) (HPC)): 109 % of control
- T/C (dose: 3.12 mg/kg/injection, schedule: Q01DX009 (ip), vehicle: Klucel (hydroxypropylcellulose) (HPC)): 100 % of control
- T/C [6]: 90 % of control
- T/C (dose: 25.0 mg/kg/injection, schedule: Q01DX009 (ip), vehicle: saline): 92 % of control
- T/C [1]: 100 % of control
